The values that follow come from patent US20160272937A1, “METHODS OF GENERATING INTERMEDIATE MESODERM CELLS FROM HUMAN PLURIPOTENT STEM CELLS” (THE BRIGHAM AND WOMEN'S HOSPITAL, INC., priority 2013, published 2016).

For assay [1], the system named is hPSCs (hESC and hiPSC lines). The assay can be described thus: Intermediate mesoderm differentiation: PAX2/LHX1 immunostaining. It is filed as cell-based, human. The note with it: CHIR pre-treatment 48 hours compared to 24 or 36 hours, all time points. As to the method: Mesendoderm differentiation—the media is changed to Advanced RPMI (A-RPMI, Invitrogen) supplemented with 1×L-glutamax and 1× penicillin/streptomycin and either CHIR99021 (CHIR, Stemgent), human Wnt3a (R&D systems), and/or human activin A (R&D systems) at the doses described. Definitive endoderm differentiation—cells are treated with A-RPMI+1×L-glu+1×P/S+5 μM CHIR for 24 hours, then A-RPMI+1×Lglu+1×P/S+100 ng/mL of activin A for 2-3 days. Hepatic differentiation—cells at the definitive endoderm stage are treated with A-RPMI+1×L-glu+1×P/S+1×B27 supplement (Invitrogen)+20 ng/mL BMP-4 (R&D systems)+10 ng/mL FGF2 (Invitrogen) for 5 days, then A-RPMI+1×L-glu+1×P/S+1×B27+10 ng/mL HGF for 5 days, then HCM Hepatocyte Culture Medium (Lonza) supplemented with 20 ng/mL Oncostatin M and 10 ng/mL HGF (Peprotech) for 5 days. Pancreatic differentiation—cells at the definitive endoderm stage are treated with DMEM/F12+2% FBS (Hyclone)+50 ng/mL FGF7 (R&D systems) for 2 days, then high-glucose DMEM (Mediatech)+1% B27+2 μM retinoic acid (Sigma)+0.25 μM KAAD cyclopamine (EMD Millipore)+100 ng/mL recombinant human Noggin (R&D systems) for 4 days, then high-glucose DMEM+1% B27+100 ng/mL Noggin+300 nM indolactam V (Stemgent)+1 μM ALK5 inhibitor II (Axxora) for 4 days. Anterior foregut endoderm differentiation—cells at the definitive endoderm stage are treated with DMEM/F12+1×L-glu+1×B27+200 ng/mL Noggin+10 μM SB431542 (Stemgent) for 3 days. For hindgut endoderm differentiation, cells at the definitive endoderm stage were treated with A-RPMI+1×L-glu+1×P/S+2% FBS+500 ng/mL FGF4 (R&D systems)+5 μM CHIR for 4 days. […]
Nuclei can be counterstained with DAPI (Sigma). […] Immunofluorescence is visualized using an inverted fluorescence microscope (Nikon Eclipse Ti, Tokyo, Japan). Quantification is performed by counting a minimum of five random fields at 10× magnification. […]

Assay [2] has as its system hPSC-derived SIX2+ cells. The assay can be described thus: Response of hPSC-derived SIX2+ cells to canonical Wnt signaling (CHIR). Format: cell-based, human. The procedure: To test the competence of hPSC-derived SIX2+ cells to respond to canonical Wnt signaling, the Inventors treated cells on day 6 of differentiation with […] CHIR for 24 hours, followed by withdrawal of CHIR. […] Furthermore, hPSC-derived SIX2+ cells explanted into dissociated-reaggregated mouse embryonic kidneys formed organizing clusters of cells that expressed LTL (FIG. 7I). The Inventors therefore concluded that the ability of hPSCderived PAX2+LHX1+ cells to be differentiated into cells expressing multiple markers of kidney CMand that could form tubule like structures in response to Wnt signaling was consistent with the behavior and function of nephrogenic IM cells.

For assay [3], the system named is human pluripotent stem cells (hPSCs). The assay can be described thus: Quantitative RT-PCR gene expression in CHIR-treated hPSCs. It is filed as cell-based. The procedure:
Total RNA is harvested and isolated from cells using the RNeasy Mini Kit (Qiagen). 1 μg RNA is used for reverse transcription with the M-MLV Reverse Transcriptase system (Promega), or 500 ng RNA is used for High Capacity cDNA Reverse Transcription Kits (Applied Biosystems). RT-PCR reactions can be run in duplicate using cDNA (diluted 1:10), 300 or 400 nM forward and reverse primers, and iQ SYBR Green Supermix (Biorad) or iTAQ SYBR Green Supermix (Biorad). Quantitative RT-PCR is performed using the iQ5 Multicolor Real-Time PCR Detection System (Biorad). Samples can be run with two technical replicates to ensure precision and accuracy. β-actin can be used as a housekeeping gene. […] In parallel, the induction of the mesendoderm state was accompanied by the loss of pluripotency as reflected by a reduction of OCT4 and NANOG mRNA (FIG. 1D). […] As cells migrate through the primitive streak during development, they express SNAIL, downregulate E-cadherin expression, upregulate N-cadherin expression, and undergo an epithelial-mesenchymal transition (“EMT”). […] This was associated with EMT with waves of cells migrating away from the periphery of differentiating colonies between 36-48 hours of differentiation (FIG. 1G), and a switch in cadherin expression from E-cadherin to N-cadherin (FIG. 1H).

Where [4] appears, read: 5 mM CHIR for 24 hours on day 6, read on day 8, compared with cells not treated with CHIR.

In the case of `Cc1c[nH]c(-c2cnc(NCCNc3ccc(C#N)cn3)nc2-c2ccc(Cl)cc2Cl)n1` [CHIR99021], the PAX2 expression result in assay [1] was “less PAX2 expression”. Moreover, in assay [2] (setting [4]), the SIX2 expression entry is listed as “downregulation of SIX2 expression” and the “expression of proximal tubule marker LTL” value is on record as “increased expression”. Besides, the cell morphology result in assay [2] (within 24 hours of 5 mM CHIR treatment) was “formation of tubular-like structures”. The BMP-4 transcript expression result in assay [3] (CHIR for 24 or 48 hours, day 4, compared to DMSO-treated controls) is “significantly upregulated”. For the same compound, the “OCT4 and NANOG mRNA” value in assay [3] (CHIR time course) is given as “reduction”. Besides, the SNAI1 expression result in assay [3] (as early as 24 hours after treatment) is listed as “upregulation”. The “expression of primitive streak genes (BRACHY, MIXL1, EOMES, FOXA2, GSC)” value in assay [3] (within 24 hours of treatment, peak 36-48 hours, decreased by 72 hours) is “rapidly upregulated”.
